# Test system: HCT-116
# Experiment: Cytotoxicity against human HCT116 cells
# Assay type: functional, cell-based
row,Compound,IC50 [µM]
1,O=C1N2[C@H]3[C@H](C[C@]24SS[C@]12C[C@H]1[C@@H]([C@@H](O)CC[C@@H]1O)N2C4=O)[C@@H](O)CC[C@@H]3O [ROSTRATIN A],9
2,O=C1CC[C@H](O)[C@H]2[C@@H]1C[C@@]13SS[C@]4(C[C@@H]5C(=O)CC[C@H](O)[C@@H]5N4C1=O)C(=O)N23 [ROSTRATIN B],4.4
3,CO[C@H]1CC(=O)[C@H]2C[C@@]34SS[C@]5(C[C@@H]6C(=O)C[C@H](OC)[C@H](O)[C@@H]6N5C3=O)C(=O)N4[C@H]2[C@H]1O [ROSTRATIN C],1.6
4,O=C1C[C@@H](S)[C@H](O)[C@H]2[C@@H]1C[C@@]13SS[C@]4(C[C@@H]5C(=O)C[C@@H](S)[C@H](O)[C@@H]5N4C1=O)C(=O)N23 [ROSTRATIN D],35
